Results reported in patent US20160122312A1, “ANTI-VIRAL COMPOUNDS, PHARMACEUTICAL COMPOSITIONS AND METHODS OF USE THEREOF” (KINETA, INC., priority 2013, published 2016).

Tests used:
[1] = tested on: influenza virus A/Udorn/72 H3N2 strain; experiment: influenza focus-forming assay in 293 cells; type: cell-based; conditions: for IC50: HEK293, 24 h, read-out: Flu IC50; for viral infection of 293 cells (decrease in foci, dose dependence): FIGS. 3A, 3B; for antiviral activity compared with KIN101 (viral titer): FIG. 3A
[2] = tested on: DNV type 2 strain; experiment: DNV focus-forming assay in Huh7 cells; type: cell-based, Dengue virus; conditions: for IC50: Dengue virus, Huh-7, Huh7 cells, treatment after infection, 48 hours replication; for viral infection of Huh7 cells (decrease in foci, dose dependence): FIG. 4B
[3] = tested on: hCMV AD169 strain; experiment: hCMV focus-forming assay in human foreskin fibroblasts; type: cell-based, human cytomegalovirus; conditions: FIGS. 5A, 5B
[4] = tested on: interferon-stimulated gene (ISG) induction; experiment: preliminary screen of natural product library for ISG induction; type: cell-based; conditions: preliminary screen of NCI natural product library
Description: The compounds disclosed herein are described as isoflavone compounds. Isoflavones are best known as natural products isolated from the Leguminosae (legume) family and are usually polyhydroxylated and pharmacologically active as phytoestrogenics and antioxidants. The most recognizable member of this class is genistein, which has been reported to have anticancer activities and to induce thymic and immune changes in mammals (Banerjee, S., et al. (2008) Multi-targeted therapy of cancer by genistein, Cancer Lett 269, 226-242).

[5] = tested on: RSV A2 Long strain; experiment: RSV antiviral assay in HeLa cells; type: cell-based, respiratory syncytial virus; conditions: 48 hours post infection, FIG. 2B
[6] = tested on: Murine EMCV; experiment: EMCV in vitro antiviral assay, Huh7 cell viability by MTS; type: cell-based, encephalomyocarditis virus; conditions: Huh7 cells; for Cell viability post-infection: 5 hours before EMCV, MTS 18 hours after infection
Procedure: In an encephalomyocarditis virus (EMCV) in vitro antiviral assay, Huh7 cells were grown under normal growth conditions and treated with the indicated amount of KIN101 in media containing 0.5% DMSO. The cells were grown in the presence of compound for 5 hours and then infected with 250 pfu Murine EMCV obtained from ATCC #VR-129B. Infected cells were grown for an additional 18 hours and then cell viability was measured using an MTS assay. Negative control cells were treated with buffer alone containing 0.5% DMSO. Interferon treatment was used as a positive control for virus inhibition and was added similar to compound treatments at a final concentration of 10 IU/mL Interferon-α: Intron A, from Schering-Plough. Cell viability was measured using an MTS assay, CellTiter 96® AQueous One Solution Cell Proliferation Assay (MTS), from Promega #G3580. […]

| SMILES | IC50 [1] [nM] | IC50 [2] [nM] | also measured |
| --- | --- | --- | --- |
| CC(C)(C)c1ccc(-c2coc3cc(OS(C)(=O)=O)ccc3c2=O)cc1 [KIN269] | 145 | 542 |  |
| O=c1c(-c2ccc(OC(F)(F)F)cc2)coc2cc(OC(F)F)ccc12 [KIN299] | 709 | > 5000 | viral infection of 293 cells (decrease in foci, dose dependence) [1]: dose-dependent decreases in viral infection |
| CNCCOc1ccc2c(=O)c(-c3ccc(C(C)(C)C)cc3)coc2c1 [KIN861] | 405 | > 5000 |  |
| CC(C)(C)c1ccc(-c2coc3cc(OCCN4CCOCC4)ccc3c2=O)cc1 [KIN392] | 9 | 650 | hCMV as measured by foci (FFU/mL), dose dependence [3]: dose-dependent decreases in hCMV; viral infection of 293 cells (decrease in foci, dose dependence) [1]: dose-dependent decreases in viral infection |
| CS(=O)(=O)Oc1ccc2c(=O)c(-c3ccc(NS(=O)(=O)N4CCCCC4)cc3)coc2c1 [KIN308] | 108 | 4160 | antiviral activity compared with KIN101 (viral titer) [1]: improved on this antiviral activity |
| CN1CCN(CCOc2ccc3c(=O)c(-c4ccc(C(C)(C)C)cc4)coc3c2)CC1 [KIN807] | 143 | 130 |  |
| CS(=O)(=O)Oc1ccc2c(=O)c(-c3ccc(OCC4CCCOC4)cc3)coc2c1 (stereo not shown) [KIN850] | 2 | 1350 |  |
| CN(c1ccc2c(=O)c(-c3ccc(OCC(F)(F)F)cc3)coc2c1)S(C)(=O)=O [KIN857] | 65 | 182 |  |
| O=C(COc1ccc2c(=O)c(-c3ccc(Br)cc3)coc2c1)N1CCOCC1 [KIN238] | 1200 | 1180 |  |
| O=C(COc1ccc2c(=O)c(-c3ccc(OC(F)(F)F)cc3)coc2c1)N1CCOCC1 [KIN290] | 1530 | 3100 |  |
| CC(C)(C)c1ccc(-c2coc3cc(OCCN4CCN(S(C)(=O)=O)CC4)ccc3c2=O)cc1 [KIN395] | 57 | 1970 | hCMV as measured by foci (FFU/mL), dose dependence [3]: dose-dependent decreases in hCMV; viral infection of 293 cells (decrease in foci, dose dependence) [1]: dose-dependent decreases in viral infection |
| CS(=O)(=O)Oc1ccc2c(=O)c(-c3ccc(OCC4CC4)cc3)coc2c1 [KIN371] | 156 | > 5000 | viral infection of 293 cells (decrease in foci, dose dependence) [1]: dose-dependent decreases in viral infection |
| CC(C)(C)c1ccc(-c2coc3cc(OCC(=O)N4CCOCC4)ccc3c2=O)cc1 [KIN306] | 880 | 2810 | antiviral activity compared with KIN101 (viral titer) [1]: improved on this antiviral activity |
| CN(c1ccc(-c2coc3cc(OS(C)(=O)=O)ccc3c2=O)cc1)S(C)(=O)=O [KIN291] |  |  | antiviral activity compared with KIN101 (viral titer) [1]: improved on this antiviral activity |
| CN(c1ccc2c(=O)c(-c3ccc(C(C)(C)C)cc3)coc2c1)S(C)(=O)=O [KIN385] | 9 | 293 | hCMV as measured by foci (FFU/mL), dose dependence [3]: dose-dependent decreases in hCMV; viral infection of 293 cells (decrease in foci, dose dependence) [1]: dose-dependent decreases in viral infection; viral infection of Huh7 cells (decrease in foci, dose dependence) [2]: dose-dependent decreases in viral infection |
| CS(=O)(=O)Oc1ccc2c(=O)c(C3CCCC3)coc2c1 [KIN282] |  |  | antiviral activity compared with KIN101 (viral titer) [1]: improved on this antiviral activity |
| CS(=O)(=O)Oc1ccc2c(=O)c(-c3ccc(OCC(F)(F)F)cc3)coc2c1 [KIN376] | 103 | 5000 | hCMV as measured by foci (FFU/mL), dose dependence [3]: dose-dependent decreases in hCMV; viral infection of 293 cells (decrease in foci, dose dependence) [1]: dose-dependent decreases in viral infection; viral infection of Huh7 cells (decrease in foci, dose dependence) [2]: dose-dependent decreases in viral infection |
| CC(=O)N1CCN(CCOc2ccc3c(=O)c(-c4ccc(C(C)(C)C)cc4)coc3c2)CC1 [KIN394] | 70 | 940 | hCMV as measured by foci (FFU/mL), dose dependence [3]: dose-dependent decreases in hCMV; viral infection of 293 cells (decrease in foci, dose dependence) [1]: dose-dependent decreases in viral infection |
| CS(=O)(=O)Oc1ccc2c(=O)c(-c3ccc(OCC4CCOCC4)cc3)coc2c1 [KIN389] | 200 | > 5000 |  |

| SMILES | IC50 [1] [nM] | IC50 [2] [nM] | also measured |
| --- | --- | --- | --- |
| CN(c1ccc2c(=O)c(-c3ccc(OCCC(C)(C)C)cc3)coc2c1)S(C)(=O)=O [KIN882] | 30 | 216 |  |
| CC(C)(C)COc1ccc(-c2coc3cc(OS(C)(=O)=O)ccc3c2=O)cc1 [KIN372] | 37 | 1690 | hCMV as measured by foci (FFU/mL), dose dependence [3]: dose-dependent decreases in hCMV; viral infection of 293 cells (decrease in foci, dose dependence) [1]: dose-dependent decreases in viral infection; viral infection of Huh7 cells (decrease in foci, dose dependence) [2]: dose-dependent decreases in viral infection |
| C#CCOc1ccc2c(=O)c(-c3ccc(C(C)(C)C)cc3)coc2c1 [KIN328] | 286 | 1340 | hCMV as measured by foci (FFU/mL), dose dependence [3]: dose-dependent decreases in hCMV; viral infection of 293 cells (decrease in foci, dose dependence) [1]: dose-dependent decreases in viral infection; viral infection of Huh7 cells (decrease in foci, dose dependence) [2]: dose-dependent decreases in viral infection |
| CN(c1ccc2c(=O)c(-c3ccc(OCC(C)(C)C)cc3)coc2c1)S(C)(=O)=O [KIN867] | 7 | 304 |  |
| CS(=O)(=O)Oc1ccc2c(=O)c(-c3cccc4ccccc34)coc2c1 [KIN267] |  |  | antiviral activity compared with KIN101 (viral titer) [1]: improved on this antiviral activity |
| CS(=O)(=O)Oc1ccc2c(=O)c(-c3ccc(OC(F)(F)F)cc3)coc2c1 [KIN134] | 450 | 3970 | hCMV as measured by foci (FFU/mL), dose dependence [3]: dose-dependent decreases in hCMV; antiviral activity compared with KIN101 (viral titer) [1]: improved on this antiviral activity; viral infection of Huh7 cells (decrease in foci, dose dependence) [2]: dose-dependent decreases in viral infection |
| CS(=O)(=O)N1CCN(CCOc2ccc3c(=O)c(-c4ccc(Br)cc4)coc3c2)CC1 [KIN848] | 4 | 258 |  |
| O=c1c(-c2ccc(O)cc2)coc2cc(O)cc(O)c12 [genistein] |  |  | interferon-stimulated gene (ISG) induction, screen outcome [4]: validated hit |
| CC(=O)N1CCN(CCOc2ccc3c(=O)c(-c4ccc(OC(F)(F)F)cc4)coc3c2)CC1 [KIN814] | 62 | 187 |  |
| CS(=O)(=O)Oc1ccc2c(=O)c(-c3ccc(OC(F)F)cc3)coc2c1 [KIN378] | 600 | > 5000 |  |
| CN(c1ccc2c(=O)c(-c3ccc(OCC4CC4)cc3)coc2c1)S(C)(=O)=O [KIN865] | 234 | 176 |  |
| CC(=O)N1CCN(CCOc2ccc3c(=O)c(-c4ccc(Br)cc4)coc3c2)CC1 [KIN844] | 2 | 316 |  |
| CS(=O)(=O)Oc1ccc2c(=O)c(-c3ccc(C(F)(F)F)cc3)coc2c1 [KIN263] | 800 | 1390 | antiviral activity compared with KIN101 (viral titer) [1]: improved on this antiviral activity |
| CCN(c1ccc2c(=O)c(-c3ccc(C(C)(C)C)cc3)coc2c1)S(C)(=O)=O [KIN866] | 27 | 507 |  |
| CS(=O)(=O)N1CCN(CCOc2ccc3c(=O)c(-c4ccc(OC(F)(F)F)cc4)coc3c2)CC1 [KIN826] | 14 | 196 |  |
| O=c1c(-c2ccc(OC(F)(F)F)cc2)coc2cc(OCCN3CCOCC3)ccc12 [KIN824] | 76 | 217 |  |
| CN1CCN(CCOc2ccc3c(=O)c(-c4ccc(OC(F)(F)F)cc4)coc3c2)CC1 [KIN823] | 153 | 371 |  |
| CS(=O)(=O)Oc1ccc2c(=O)c(-c3ccc(Br)cc3)coc2c1 [KIN101] | 2000 | > 5000 | viral infection of 293 cells (decrease in foci, dose dependence) [1]: dose-dependent decreases in viral infection; RSV viral RNA [5]: decreased RSV viral RNA; Cell viability post-infection ([6]; 5 units added): ~0.7; Cell viability post-infection ([6]; 10 units added): ~1.2; Cell viability post-infection ([6]; 20 units added): ~1.45; cell viability following infection with EMCV (in words) [6]: protective of cell viability; viral infection of Huh7 cells (decrease in foci, dose dependence) [2]: dose-dependent decreases in viral infection; viral protein in cells infected with DNV ([2]; increasing amounts of compound, FIG. 4A): dose-dependent decrease in viral protein |
| CC(C)(C)c1ccc(-c2coc3cc(OCCO)ccc3c2=O)cc1 [KIN851] | 417 | 1190 |  |
